The source of these data is US8163768B2, “1,4-dihydropyridine-fused heterocycles, process for preparing the same, use and compositions containing them” (Aventis Pharma S.A.., priority 2005, dated 2012).

The assay concerns the target T1, Aurora2 (Aurora-A) (Homo sapiens, UniProt O14965).
T1 construct: Aurora-A: the full length recombinant protein including an N-terminal poly-histidine tail has been expressed in E. coli; poly-histidine (N); made in house; host or cells: E. coli
T1 sequence (O14965 1-403): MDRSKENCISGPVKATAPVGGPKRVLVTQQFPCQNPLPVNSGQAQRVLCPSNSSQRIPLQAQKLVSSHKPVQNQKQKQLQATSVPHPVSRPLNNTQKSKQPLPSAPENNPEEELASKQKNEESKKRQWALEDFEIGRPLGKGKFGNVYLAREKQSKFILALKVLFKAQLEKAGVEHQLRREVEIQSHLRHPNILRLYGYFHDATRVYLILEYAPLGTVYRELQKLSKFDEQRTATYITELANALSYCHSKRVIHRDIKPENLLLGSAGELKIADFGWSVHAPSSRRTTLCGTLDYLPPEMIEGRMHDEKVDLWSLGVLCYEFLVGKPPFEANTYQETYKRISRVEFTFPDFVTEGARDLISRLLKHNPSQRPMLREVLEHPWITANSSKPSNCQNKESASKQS
Briefly: Aurora 2 (Aurora A) kinase radioactivity scintillation assay using nickel chelate Flash plates. The class given is biochemical. The following applies: 10 nM Aurora-A, 500 nM NuMA substrate, 1 μM ATP with [33P] ATP, 10 mM MgCl2, 30 minutes, 37° C. The protocol:
Aurora 1 and 2 (Respectively. Aurora B and A)
The inhibitory effect of compounds with respect to the Aurora 1 and 2 kinases is determined with a radioactivity scintillation assay using nickel chelate.
The kinase activity of Aurora is measured by the phosphorylation of NuMA-histidine substrate in the presence of radiolabelled ATP ([^33P] ATP) using 96 well Flash plates where the nickel-chelate is linked to the surface of the microplate. The amount of ^33P incorporated to the substrate NuMA is proportional to the aurora activity.
The Flash plates used are nickel-chelate 96 well plates (Perkin Elmer, model SMP107).
The products to be evaluated are incubated in a 100 μl reaction volume per well in the presence of 10 nM of Aurora-B or Aurora-A, 500 nM of NuMA substrate in the following buffer: 50 mM of NaCl, 5 mM MgCl2, (Aurora-B) or 10 mM MgCl2 (Aurora-A) and 1 mM of DTT at 37° C.
80 μL of enzyme/substrate incubation buffer is distributed in each well, followed by 10 μL of solution of compound to be measured with various concentrations. The reaction is started by adding 1 μM of ATP (final concentration) containing 0.2 μCi of [^33P] ATP (10 μL). After 30 minutes of incubation the reaction is stopped by removal of the reaction mixture and each well is washed twice with 300 μl of buffer Tris/HCl. The radioactivity is measured in each well using a Packard Top count scintillation counter instrument.
The enzymatic activity is expressed as counts per minute obtained in 30 minutes after subtraction of the background noise (reaction medium without enzyme). The measurement is expressed as percentage of inhibition of Aurora activity versus the control. To generate IC50 values, compounds of the invention are tested at different concentration and the percentage of inhibition are plotted as function of compound concentration, IC50s are calculated using the Xlfit 4 curve fitting software.
One may read the IC50 as the midpoint of a concentration-inhibition curve. As to `Cc1cc(C2C3=C(CNCC3=O)Nc3n[nH]cc32)ccc1O` (centres unmarked) [Example 1, 4-(4-Hydroxy-3-methyl-phenyl)-2,4,6,7,8,9-hexahydro-pyrazolo[3,4-b]-1,7-naphthyridin-5-one; compound with trifluoro-acetic acid], the IC50 turned out to be 7450 nM.
As for `CC(C)(C)c1ccc(Oc2cccc(C3C4=C(CNCC4=O)Nc4n[nH]cc43)c2)cc1` (centres unmarked) [Example 8, 4-[3-(4-tert-Butyl-phenoxy)-phenyl]-2,4,6,7,8,9-hexahydro-pyrazolo[3,4-b]-1,7-naphthyridin-5-one; compound with trifluoro-acetic acid], the figure is 696 nM; as for `Cc1ccc(Oc2cccc(C3C4=C(CNCC4=O)Nc4n[nH]cc43)c2)cc1` (centres unmarked) [Example 11, 4-(3-p-Tolyloxy-phenyl)-2,4,6,7,8,9-hexahydro-pyrazolo[3,4-b]-1,7-naphthyridin-5-one; compound with trifluoro-acetic acid], 1130 nM; as for `O=C1CNCC2=C1C(c1ccc(-c3ccc(Cl)cc3)o1)c1c[nH]nc1N2` (centres unmarked) [Example 16, 4-[5-(4-Chloro-phenyl)-furan-2-yl]-2,4,6,7,8,9-hexahydro-pyrazolo[3,4-b]-1,7-naphthyridin-5-one; compound with trifluoro-acetic acid], 1080 nM.
Turning to `O=C1CNCC2=C1C(c1ccc(-c3ccccc3C(F)(F)F)o1)c1c[nH]nc1N2` (centres unmarked) [Example 17, 4-[5-(2-trifluoromethyl-phenyl)-furan-2-yl]-2,4,6,7,8,9-hexahydro-pyrazolo[3,4-b]-1,7-naphthyridin-5-one; compound with trifluoro-acetic acid], the IC50 is 888 nM.
Next, `O=C1CNCC2=C1C(c1ccc(-c3cccc(C(F)(F)F)c3)o1)c1c[nH]nc1N2` (centres unmarked) [Example 18, 4-[5-(3-trifluoromethyl-phenyl)-furan-2-yl]-2,4,6,7,8,9-hexahydro-pyrazolo[3,4-b]-1,7-naphthyridin-5-one; compound with trifluoro-acetic acid]: 2150 nM; `O=C1CNCC2=C1C(c1ccc(COc3ccc(Cl)c(Cl)c3)o1)c1c[nH]nc1N2` (centres unmarked) [Example 19, 4-[5-(3,4-Dichloro-phenoxymethyl)-furan-2-yl]-2,4,6,7,8,9-hexahydro-pyrazolo[3,4-b]-1,7-naphthyridin-5-one; compound with trifluoro-acetic acid]: 8390 nM.
For the compound `O=C1CCCC2=C1C(c1cccc(Oc3ccc(Cl)cc3)c1)c1c[nH]nc1N2` (centres unmarked) [Example 22, 4-[3-(4-Chloro-phenoxy)-phenyl]-2,4,6,7,8,9-hexahydro-pyrazolo[3,4-b]quinolin-5-one; compound with trifluoro-acetic acid], the half-maximal inhibitory concentration (IC50) came out at 2320 nM.
Next, `O=C1CCCC2=C1C(c1ccc(-c3cccc(Cl)c3)o1)c1c[nH]nc1N2` (centres unmarked) [Example 23]: 2410 nM.
For `O=C1CCCC2=C1C(c1ccc(COc3ccc(Cl)c(Cl)c3)o1)c1c[nH]nc1N2` (centres unmarked) [Example 24, 4-[5-(3,4-Dichloro-phenoxymethyl)-furan-2-yl]-2,4,6,7,8,9-hexahydro-pyrazolo[3,4-b]quinolin-5-one; compound with trifluoro-acetic acid], the concentration for half-maximal inhibition (IC50) came to 291 nM.
Next, `O=C1CCCC2=C1C(c1ccc(-c3cccc(C(F)(F)F)c3)o1)c1c[nH]nc1N2` (centres unmarked) [Example 25, 4-[5-(3-Trifluoromethyl-phenyl)-furan-2-yl]-2,4,6,7,8,9-hexahydro-pyrazolo[3,4-b]quinolin-5-one; compound with trifluoro-acetic acid]: 3070 nM; `O=C1CCCC2=C1C(c1ccc(-c3ccccc3C(F)(F)F)o1)c1c[nH]nc1N2` (centres unmarked) [Example 26, 4-[5-(2-Trifluoromethyl-phenyl)-furan-2-yl]-2,4,6,7,8,9-hexahydro-pyrazolo[3,4-b]quinolin-5-one; compound with trifluoro-acetic acid]: 1030 nM; `O=C1CCCC2=C1C(c1ccc(-c3ccc(Cl)cc3)o1)c1c[nH]nc1N2` (centres unmarked) [Example 27, 4-[5-(4-Chloro-phenyl)-furan-2-yl]-2,4,6,7,8,9-hexahydro-pyrazolo[3,4-b]quinolin-5-one; compound with trifluoro-acetic acid]: 4920 nM.
Consider `Cn1c2c(c(=O)n(C)c1=O)C(c1cccc(Oc3ccc(Cl)cc3)c1)c1c[nH]nc1N2` (centres unmarked) [Example 43, 4-[3-(4-Chloro-phenoxy)-phenyl]-6,8-dimethyl-2,4,8,9-tetrahydro-1,2,6,8,9-pentaaza-cyclopenta[b]naphthalene-5,7-dione; compound with trifluoro-acetic acid], for which the half-maximal inhibitory concentration (IC50) is 9700 nM.
As for `O=C1CN(CC(O)CN2CCOCC2)CC2=C1C(c1cccc(Oc3ccc(Cl)cc3)c1)c1c[nH]nc1N2` (centres unmarked) [Example 50, 4-[3-(4-Chloro-phenoxy)-phenyl]-7-(2-hydroxy-3-morpholin-4-yl-propyl)-2,4,6,7,8,9-hexahydro-pyrazolo[3,4-b]-1,7-naphthyridin-5-one; compound with trifluoro-acetic acid], the figure is 227 nM.
As for `Cc1noc(C)c1C(=O)N1CC(=O)C2=C(C1)Nc1n[nH]cc1C2c1cccc(Oc2ccc(Cl)cc2)c1` (centres unmarked) [Example 53, 4-[3-(4-Chloro-phenoxy)-phenyl]-7-(3,5-dimethyl-isoxazole-4-carbonyl)-2,4,6,7,8,9-hexahydro-pyrazolo[3,4-b]-1,7-naphthyridin-5-one; compound with trifluoro-acetic acid], the figure is 7370 nM; as for `O=C1CN(C(=O)c2ccno2)CC2=C1C(c1cccc(Oc3ccc(Cl)cc3)c1)c1c[nH]nc1N2` (centres unmarked) [Example 54, 4-[3-(4-Chloro-phenoxy)-phenyl]-7-(isoxazole-5-carbonyl)-2,4,6,7,8,9-hexahydro-pyrazolo[3,4-b]-1,7-naphthyridin-5-one; compound with trifluoro-acetic acid], 6100 nM; as for `Cc1nnsc1C(=O)N1CC(=O)C2=C(C1)Nc1n[nH]cc1C2c1cccc(Oc2ccc(Cl)cc2)c1` (centres unmarked) [Example 55, 4-[3-(4-Chloro-phenoxy)-phenyl]-7-(4-methyl-[1,2,3]thiadiazole-5-carbonyl)-2,4,6,7,8,9-hexahydro-pyrazolo[3,4-b]-1,7-naphthyridin-5-one; compound with trifluoro-acetic acid], 7200 nM.
As for `O=C1CNCC2=C1C(c1cccc(C(=O)NCc3ccc(OC(F)(F)F)cc3)c1)c1c[nH]nc1N2` (centres unmarked) [Example 60, 3-(5-Oxo-2,4,6,7,8,9-hexahydro-pyrazolo[3,4b]-1,7-naphthyridin-4-yl)-N-(4-trifluoromethoxy-benzyl)-benzamide; compound with trifluoro-acetic acid], the figure is 6500 nM; as for `O=C1CNCC2=C1C(c1cccc(C(=O)Nc3ccc(OC(F)(F)F)cc3)c1)c1c[nH]nc1N2` (centres unmarked) [Example 63, 3-(5-Oxo-2,4,6,7,8,9-hexahydro-pyrazolo[3,4b]-1,7-naphthyridin-4-yl)-N-(4-trifluoromethoxy-phenyl)-benzamide; compound with trifluoro-acetic acid], 3300 nM; as for `O=C1CNCC2=C1C(c1cccc(C(=O)Nc3cccc(OC(F)(F)F)c3)c1)c1c[nH]nc1N2` (centres unmarked) [Example 64, 3-(5-Oxo-2,4,6,7,8,9-hexahydro-pyrazolo[3,4b]-1,7-naphthyridin-4-yl)-N-(3-trifluoromethoxy-phenyl)-benzamide; compound with trifluoro-acetic acid], 4100 nM.
On to `O=C1CNCC2=C1C(c1cccc(NC(=O)c3ccc(Cl)cc3)c1)c1c[nH]nc1N2` (centres unmarked) [Example 65, 4-Chloro-N-[3-(5-Oxo-2,4,6,7,8,9-hexahydro-pyrazolo[3,4b]-1,7-naphthyridin-4-yl)-phenyl]-benzamide; compound with trifluoro-acetic acid], for which the IC50 came to 630 nM.
Next, `O=C(Nc1ccc(Cl)cc1)Nc1cccc(C2C3=C(CNCC3=O)Nc3n[nH]cc32)c1` (centres unmarked) [Example 67, 1-(4-Chloro-phenyl)-3-[3-(5-Oxo-2,4,6,7,8,9-hexahydro-pyrazolo[3,4b]-1,7-naphthyridin-4-yl)-phenyl]-urea; compound with trifluoro-acetic acid]: 2000 nM.
